The target of experiment [1] is T1, partially purified bovine lens aldose reductase (Bos taurus, UniProt P16116).
T1 construct: partially purified bovine lens aldose reductase; from tissue; host or cells: bovine lens
Nature of the experiment: Inhibitory activity on aldose reductase enzyme reaction. In kind it is biochemical. Conditions: for inhibition at 0.1 µg/mL: concentration 0.1 μg/ml; for inhibition at 1 µg/mL: concentration 1.0 μg/ml; for inhibition at 0.02 µg/mL: concentration 0.02 μg/ml. Here is the method: The preparation of aldose reductase and the determination of its inhibitory action on enzyme reaction activity were carried out pursuant to the procedures disclosed by Haymann et al. in Journal of Biological Chemistry, 240, 877 (1965).
The sample solution to be examined for inhibitory activity was prepared by dissolving a compound of formula (I) according to the present invention in a small amount of methanol and increasing the volume of the resulting methanol solution by diluting it with distilled water up to tenfold volume. A partially purified bovine lens aldose reductase was used for the assay.
To 2.4 ml of a solution of 5×10^-5 M NADPH dissolved in a 2/15M phosphate buffer solution (pH 6.0), 0.4 ml of the enzyme solution (15 m units/ml) and 0.1 ml of the sample solution to be examined were added and the mixture was introduced into a quartz cell in a photoelectric photometer and subjected to pre-incubation at 37° C. for 4 mins. Then, 0.1 ml of a 0.015M D,L-glyceraldehyde solution was added thereto for initiating the enzyme reaction and the decrease in the optical absorption at 340 nm was measured at 37° C. for 4 mins. The inhibitory activity on aldose reductase was calculated by the following equation: [formula] in which A represents the enzyme reaction rate with addition of the inhibitor and B denotes the enzyme reaction rate without addition of the inhibitor.

Experiment [2] deals with Lens. Put plainly: Suppression of sorbitol accumulation in cultured lens. In kind it is cell-based, Wistar rats. Conditions: rat lens cultured 20 hours with 0.9% glucose; for inhibition at 5 µg/mL: concentration 5 μg/ml; for inhibition at 2.5 µg/mL: concentration 2.5 μg/ml. Here is the method: (§1) Lenses and sciatic nerves extirpated from Wistar rats, male, aged 7 weeks, were washed twice with an aseptic buffer solution consisting of 0.3% trisaminomethane, 0.8% NaCl, 0.038% KCl, 0.025% Na2 HPO4 ·12H2 O, 0.1% glucose and 1.85 ml/l of concentrated HCl.
(§2) The lenses and the sciatic nerves were then preincubated for 30 mins. in a culture medium prepared by adding 2 ml of 7.5% NaHCO3 aseptic solution and 5.5 ml of aseptic calf fetus serum to 100 ml of an aseptic culture medium of 0.98% TC Medium 199 (NISSUI Corp.) containing 0.01% of dihydrostreptomycin and 0.01% of benzylpenicillin. Thereafter, the intrinsic culture was effected in a culture medium prepared by adding each sample solution to be examined and 0.9% of glucose to the abovementioned culture medium and permitting culturing to proceed for 20 hours. The incubation was effected at 37° C. in an atmosphere composed of 95% air and 5% CO2.
(§3) After culturing, the cultured samples of lens and sciatic nerve were removed from the culture medium to filter paper and the weight of each of them was measured after the adherent culture solution had been blown off. Then, each of the cultured samples was homogenized with the addition of 1 ml of a cold 8% HClO4 solution and the homogenized mixture was subjected to centrifugation at 10,000 G for 10 mins., whereby a supernatant was obtained. The resulting precipitate was then homogenized again with addition thereto of 0.5 ml of cold 8% HClO4 solution and the homogenized mixture was again subjected to centrifugation in a similar way as above to obtain a further supernatant. This was combined with the previously obtained supernatant and the resulting solution was neutralized with 2N KOH aq. solution and was supplemented with distilled water to a volume of 5 ml. The precipitate formed by neutralization was separated by centrifugation at 3,000 rpm for 10 mins. and the resulting supernatant was employed as the sample for determining the sorbitol content.
(§4) The determination of the sorbitol content in the lens and in the sciatic nerve was carried out in accordance with the method of Bergmeyer in "Methods of Enzymatic Analysis" edited by H. U. Bergmeyer, pp 1323-1326, Academic Press, New York, 1974 and in accordance with the method of Malaon et al. in "Diabetes" 29, 861-864 (1980).
(§5) To 0.5 ml cf the sample solution for determination of sorbitol content obtained as above, 0.9 ml of 0.1M glycine-KOH buffer solution (pH 9.4) containing 1 mM of NAD^+ and 0.1 ml of a solution of sorbitol dehydrogenase of 20 units/ml were added and the resulting mixture was subjected to incubation at 37° C. for 1 hour.
(§6) The content of sorbitol in each tissue was estimated by assuming the increment of the optical absorption at 340 nm to be proportional to the amount of NADH produced by the reaction for the lens and by detecting the fluorescence with an excitation wavelength of 366 nm and a fluorescence wavelength of 425 nm for the sciatic nerve.
(§7) The activity for suppressing accumulation of sorbitol, i.e. the aldose reductase inhibiting activity, was calculated from the determined sorbitol content by the calculation formula [formula] in which A denotes the content of sorbitol per unit weight of the tissue after cultivation with addition of the inhibitor, B denotes the sorbitol content per unit weight of the tissue after cultivation without addition of the inhibitor and C represents the sorbitol content per unit weight of the tissue after cultivation in the medium without addition of glucose and inhibitor.

The test system of experiment [3] is Sciatic Nerve. Put plainly: Suppression of sorbitol accumulation in cultured sciatic nerve. In kind it is cell-based, Wistar rats. The following applies: Rattus norvegicus, 20 h, concentration 1.0 μg/ml; rat sciatic nerve cultured 20 hours with 0.9% glucose. Here is the method: as §1, §2, §3, §4, §5, §6, §7

As usually defined, the inhibition is the share of the control response that was lost under treatment. On to `CCCCCCCOc1ccc(CCC(=O)O)cc1-c1cc(CCC(=O)O)ccc1O` [Example 9, 2-heptyloxy-2'-hydroxy-5,5'-bis (2-carboxyethyl) biphenyl], for which, in experiment [1], the inhibition at 0.1 µg/mL worked out at 65.3% and testing at 1 µg/mL gave an inhibition of 91.9%. For the same molecule, the inhibition at 5 µg/mL in experiment [2] is 65%. The molecule also registered an inhibition at 1 µg/mL in experiment [3] of 37.8%.
In the same order, the values of `CCCCCCCCOc1ccc(CCC(=O)O)cc1-c1cc(CCC(=O)O)ccc1O` [Example 10, 2-octyloxy-2'-hydroxy-5,5'-bis (2-carboxyethyl) biphenyl] are 67.4%, 93.7%, 37.7% and 33.6%.
In experiment [1], `CC(C)CCOc1ccc(CCC(=O)O)cc1-c1cc(CCC(=O)O)ccc1O` [Example 12, 2-isopentyloxy-2'-hydroxy-5, 5'-bis (2-carboxyethyl) biphenyl] displayed an inhibition at 0.1 µg/mL of 61.9% and an inhibition at 1 µg/mL of 89.1%. At 5 µg/mL the inhibition in experiment [2] was 78.1%. Besides, the inhibition at 1 µg/mL in experiment [3] worked out at 59.5%.
In experiment [1], `COc1ccc(CCC(=O)O)cc1-c1cc(CCC(=O)O)ccc1O` [Example 16, 2-methoxy-2'-hydroxy-5,5'-bis (2-carboxyethyl) biphenyl] came in with an inhibition at 0.02 µg/mL of 21.1% and an inhibition at 0.1 µg/mL of 51.4%. Further, the inhibition at 2.5 µg/mL in experiment [2] was 59.3%. The molecule also had an inhibition at 1 µg/mL in experiment [3] of 47.7%.
In experiment [1], `CCOc1ccc(CCC(=O)O)cc1-c1cc(CCC(=O)O)ccc1O` [Example 17, 2-ethoxy-2'-hydroxy-5,5'-bis (2-carboxyethyl) biphenyl] showed an inhibition at 0.02 µg/mL of 19.5% and an inhibition at 0.1 µg/mL of 55%. The inhibition at 2.5 µg/mL in experiment [2] amounted to 47.2%. The inhibition at 1 µg/mL in experiment [3] was determined as 69.2%.
In the same order, the values of `COc1ccc(CCCC(=O)O)cc1-c1cc(CCCC(=O)O)ccc1O` [Example 21, 2-methoxy-2'-hydroxy-5,5'-bis (3-carboxypropyl) biphenyl] are 14.7%, 52.7%, 48.8% and 75.4%.
In experiment [1], `CCCOc1ccc(CCCC(=O)O)cc1-c1cc(CCCC(=O)O)ccc1O` [Example 23, 2-propoxy-2'-hydroxy-5,5'-bis (3-carboxypropyl) biphenyl] had an inhibition at 0.02 µg/mL of 33.6% and an inhibition at 0.1 µg/mL of 69.2%. In experiment [2], 2.5 µg/mL produced 55.3% inhibition. Besides, in experiment [3], the inhibition at 1 µg/mL came to 81.1%.
